# Paper PMC8247773, “Benzohydrazide and Phenylacetamide Scaffolds: New Putative ParE Inhibitors” (Frontiers in Bioengineering and Biotechnology, 2021)
# Key:
# [1] = test system: Staphylococcus aureus (NCIM 5022); set-up: method as in Yele et al., 2020, 2021; details: ref Yele et al., 2020, 2021; cited from earlier work
# [2] = test system: Klebsiella pneumonia (NCIM 2706); set-up: method as in Yele et al., 2020, 2021; details: ref Yele et al., 2020, 2021; cited from earlier work
# MRSA (NCIM 5021) [3] = test: Minimum bactericidal concentration (MBC); assay type: cell-based, methicillin-resistant Staphylococcus aureus
# Description: (§1) MBC can be defined as the minimum concentration of a compound required to kill the bacteria over a fixed period under precise conditions. […] Colonies were counted, and colony forming unit (CFU) per milliliter was calculated.
# MRSA (ATCC43300) [4] = test: Minimum bactericidal concentration (MBC); assay type: cell-based, methicillin-resistant Staphylococcus aureus
# Description: as §1
# [5] = test system: Bacillus subtilis (NCIM 2545); set-up: method as in Yele et al., 2020, 2021; details: ref Yele et al., 2020, 2021; cited from earlier work
# [6] = test system: Escherichia coli (NCIM 2065); test: Minimum bactericidal concentration (MBC); assay type: cell-based; details: E. Coli (NCIM 2065); for MBC/MIC: ratio ≤2 bactericidal, ≥4 tolerance
# Description: as §1
# MRSA (NCIM 5021) [7] = test: Antibacterial susceptibility test, microbroth dilution MIC; assay type: cell-based, methicillin-resistant Staphylococcus aureus; details: mean ± SD
# E. coli ParE enzyme = target: T1, E. coli ParE enzyme (Escherichia coli, UniProt P20083); test: E. coli ParE ATPase enzyme inhibition assay (ProFoldin kit, malachite green); assay type: biochemical; details: ATPase activity, mean ± SD (n = 3)
# T1 construct: purchased ProFoldin, Hudson, United States
# T1 sequence (P20083 whole entry): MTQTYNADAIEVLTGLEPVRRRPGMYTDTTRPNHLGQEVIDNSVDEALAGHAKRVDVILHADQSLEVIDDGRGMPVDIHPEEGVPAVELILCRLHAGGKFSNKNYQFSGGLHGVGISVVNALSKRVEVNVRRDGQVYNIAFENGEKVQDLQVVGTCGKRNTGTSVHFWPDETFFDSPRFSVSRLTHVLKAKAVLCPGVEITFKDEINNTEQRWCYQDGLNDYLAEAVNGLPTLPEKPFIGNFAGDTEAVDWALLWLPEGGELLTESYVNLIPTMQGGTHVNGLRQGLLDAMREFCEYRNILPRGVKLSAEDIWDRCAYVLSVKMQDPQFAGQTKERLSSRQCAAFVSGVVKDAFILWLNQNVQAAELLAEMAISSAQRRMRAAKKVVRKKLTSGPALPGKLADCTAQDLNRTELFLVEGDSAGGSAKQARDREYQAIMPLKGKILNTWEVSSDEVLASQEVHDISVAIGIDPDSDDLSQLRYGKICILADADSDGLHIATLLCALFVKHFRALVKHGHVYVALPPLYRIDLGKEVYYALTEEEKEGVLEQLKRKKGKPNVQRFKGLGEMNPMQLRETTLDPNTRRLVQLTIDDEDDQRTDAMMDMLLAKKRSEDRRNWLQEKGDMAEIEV
# T1 sequence (P0AFI2 whole entry, further chain): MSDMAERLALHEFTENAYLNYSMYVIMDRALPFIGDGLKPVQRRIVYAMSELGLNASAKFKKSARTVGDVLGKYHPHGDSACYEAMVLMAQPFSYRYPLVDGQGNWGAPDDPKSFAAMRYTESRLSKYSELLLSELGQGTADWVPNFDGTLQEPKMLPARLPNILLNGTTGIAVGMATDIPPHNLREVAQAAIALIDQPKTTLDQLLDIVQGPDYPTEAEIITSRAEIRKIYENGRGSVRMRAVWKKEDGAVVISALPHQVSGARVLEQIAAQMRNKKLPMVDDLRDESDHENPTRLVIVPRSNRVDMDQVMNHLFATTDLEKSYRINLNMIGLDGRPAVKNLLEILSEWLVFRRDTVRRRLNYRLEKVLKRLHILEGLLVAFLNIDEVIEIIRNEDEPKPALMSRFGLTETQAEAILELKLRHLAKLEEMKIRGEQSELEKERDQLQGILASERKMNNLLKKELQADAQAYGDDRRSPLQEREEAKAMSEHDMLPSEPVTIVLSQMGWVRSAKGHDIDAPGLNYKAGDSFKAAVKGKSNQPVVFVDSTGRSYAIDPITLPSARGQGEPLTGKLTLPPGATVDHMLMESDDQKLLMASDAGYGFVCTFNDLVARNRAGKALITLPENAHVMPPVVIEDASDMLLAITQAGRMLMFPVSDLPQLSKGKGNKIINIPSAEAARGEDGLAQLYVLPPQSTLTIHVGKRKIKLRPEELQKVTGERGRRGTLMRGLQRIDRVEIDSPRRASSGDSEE
# Description: The assay was performed as per the standard protocol provided by the ProFoldin. […] ParE hydrolyzes ATP as the source of molecular energy to perform decatenation reactions. Fluoroquinolones and aminocoumarins usually block ATPase activity to hinder the biological activities of topoisomerase II. Thus, the topoisomerase ATPase assay can be used for high-throughput screening of topoisomerase inhibitors. The ATPase activity of the E. coli ParE enzyme was based on the detection of inorganic phosphate produced by the hydrolysis of ATP in the presence of DNA. The phosphate is detected using a microplate reader at an absorbance wavelength of 650 nm. The selected compounds were tested for the inhibition of ATPase activity of ParE enzyme. […] The reaction mixture was incubated for 1 h at 37°C and then quenched with 45 μL of Dye. Incubate for 5 min, and the absorbance was measured at 650 nm. The IC50 values were determined from the absorbance readings using no enzyme and no compound controls. They were calculated using the non-linear regression curve fit method.
# MRSA (ATCC43300) [8] = test: Antibacterial susceptibility test, microbroth dilution MIC; assay type: cell-based, methicillin-resistant Staphylococcus aureus; details: mean ± SD
# [9] = test system: Mycobacterium tuberculosis (NCIM 2984); set-up: method as in Yele et al., 2020, 2021; details: ref Yele et al., 2020, 2021; cited from earlier work
# [10] = test system: Staphylococcus epidermis (NCIM 2493); set-up: method as in Yele et al., 2020, 2021; details: ref Yele et al., 2020, 2021; cited from earlier work
# [11] = test system: Escherichia coli (NCIM 2065); test: Antibacterial susceptibility test, microbroth dilution MIC; assay type: cell-based; details: E. Coli (NCIM 2065); mean ± SD
# [12] = test system: Escherichia coli (NCIM 2567); set-up: method as in Yele et al., 2020, 2021; details: ref Yele et al., 2020, 2021; cited from earlier work
# [13] = test system: Pseudomonas aeruginosa (NCIM 2036); set-up: method as in Yele et al., 2020, 2021; details: ref Yele et al., 2020, 2021; cited from earlier work
# E. coli = test: Checkerboard synergy with FDA approved drugs; assay type: cell-based, Escherichia coli
# [14] = FIC of compound 5 in combination
# [15] = FIC of compound 21 in combination with the row's drug
# [16] = FIC of the drug in combination with compound 5
# [17] = FIC of the drug in combination with compound 21
Structure (SMILES),Minimum inhibitory concentration (MIC) S. a [1],Minimum inhibitory concentration (MIC) K. p [2],MBC (MRSA (NCIM 5021) [3]) [µg/mL],MBC/MIC (MRSA (NCIM 5021) [3]),MBC (MRSA (ATCC43300) [4]) [µg/mL],MBC/MIC (MRSA (ATCC43300) [4]),Minimum inhibitory concentration (MIC) B. s [5],MBC [6] [µg/mL],MBC/MIC [6],Minimum inhibitory concentration (MRSA (NCIM 5021) [7]) [µg/mL],IC50 against E. coli ParE enzyme (E. coli ParE enzyme) [µg/mL],Minimum inhibitory concentration (MRSA (ATCC43300) [8]) [µg/mL],Minimum inhibitory concentration (MIC) M. t [9],Minimum inhibitory concentration (MIC) S. e [10],Minimum inhibitory concentration [11] [µg/mL],Minimum inhibitory concentration (MIC) E. c [12],Minimum inhibitory concentration (MIC) P. a [13],other results
O=C(COc1ccccc1NC(=O)CCl)Nc1ccc(S(=O)(=O)O)cc1 [Compound 6],5.23,0.78,7.39 ± 0.18,4,4.56 ± 0.08,3,3.56,3.7 ± 0.12,3,1.86 ± 0.10,1.19,1.71 ± 0.21,15.23,7.89,1.56 ± 0.30,0.86,0.64,
O=C(COc1ccccc1NC(=O)CCl)Nc1cccc(Cl)c1 [Compound 10],0.92,14.70,0.82 ± 0.03,1,0.88 ± 0.10,1,1.97,0.83 ± 0.05,1,0.82 ± 0.03,1.84,0.88 ± 0.10,5.26,1.95,0.83 ± 0.05,7.07,10.81,
O=C(COc1ccccc1NC(=O)CCl)Nc1cc(Cl)c(Cl)cc1Cl [Compound 11],0.68,4.43,7.18 ± 0.15,4,0.84 ± 0.05,1,0.94,0.97 ± 0.01,1,1.79 ± 0.16,1.81,0.84 ± 0.05,4.71,1.33,0.97 ± 0.01,7.98,9.33,
COc1ccc(C(=O)NNC(=O)COc2ccccc2NC(=O)CCl)cc1 [Compound 13],3.28,0.89,,,,,7.10,9.43 ± 0.11,4,8.36 ± 0.30,2.73,2.47 ± 0.46,1.33,4.15,2.60 ± 0.26,1.92,1.25,
O=C(COc1ccccc1NC(=O)CCl)NNC(=O)c1ccccc1Cl [Compound 15],0.62,1.89,,,3.18 ± 0.32,2,0.67,,,5.60 ± 0.36,1.33,1.51 ± 0.49,3.52,0.64,0.98 ± 0.07,1.63,1.45,
O=C(COc1ccccc1NC(=O)CCl)NNC(=O)c1ccncc1 [Compound 16],8.99,2.56,,,,,11.59,9.12 ± 0.11,4,5.65 ± 0.27,2.62,2.74 ± 0.19,1.79,7.24,2.60 ± 0.28,2.12,3.23,
Cc1ccc(S(=O)(=O)NC(=O)COc2ccccc2NC(=O)CCl)cc1 [Compound 18],2.48,5.25,1.81 ± 0.40,1,3.74 ± 0.16,2,3.52,1.42 ± 0.23,1,1.81 ± 0.40,1.81,1.74 ± 0.21,4.62,3.96,1.42 ± 0.23,5.20,4.67,
O=C(CSc1nc2ccccc2s1)Nc1ccccc1 [Compound 23],1.84,1.62,0.94 ± 0.04,1,0.75 ± 0.11,1,1.27,0.95 ± 0.05,1,0.94 ± 0.04,1.76,0.75 ± 0.11,1.74,1.51,0.95 ± 0.05,2.11,1.88,
COc1ccc(OCC(=O)Nc2ccc(Cl)cc2)cc1 [Compound 28],1.21,1.98,10.62 ± 0.44,4,,,2.04,3.85 ± 0.25,2,2.70 ± 0.22,1.93,2.04 ± 0.16,1.47,0.71,1.88 ± 0.11,0.88,5.55,
C[C@H]1c2cccc(O)c2C(=O)C2=C(O)[C@]3(O)C(=O)C(C(N)=O)=C(O)[C@@H](N(C)C)[C@@H]3[C@@H](O)[C@@H]21 [Doxycycline],,,,,,,,,,,,,,,,,,FIC A (E. coli; [14]): 0.0702; FIC A (E. coli; [15]): 0.1813; FIC B (E. coli; [16]): 0.0273; FIC B (E. coli; [17]): 0.0262; Inference (E. coli; drug combined with compound 5): Synergistic (synergistic when the ΣFICs is ≤ 0.5); ΣFIC A + FIC B (E. coli; drug combined with compound 5): 0.0975; Inference (E. coli; drug combined with compound 21): Synergistic (synergistic when the ΣFICs is ≤ 0.5); ΣFIC A + FIC B (E. coli; drug combined with compound 21): 0.2075
CO[C@H]1/C=C/O[C@@]2(C)Oc3c(C)c(O)c4c(O)c(c(/C=N/N5CCN(C)CC5)c(O)c4c3C2=O)NC(=O)/C(C)=C\C=C\[C@H](C)[C@H](O)[C@@H](C)[C@@H](O)[C@@H](C)[C@H](OC(C)=O)[C@@H]1C [Rifampicin],,,,,,,,,,,,,,,,,,FIC A (E. coli; [14]): 0.1202; FIC A (E. coli; [15]): 0.1942; FIC B (E. coli; [16]): 0.0524; FIC B (E. coli; [17]): 0.1281; Inference (E. coli; drug combined with compound 5): Synergistic (synergistic when the ΣFICs is ≤ 0.5); ΣFIC A + FIC B (E. coli; drug combined with compound 5): 0.1726; Inference (E. coli; drug combined with compound 21): Synergistic (synergistic when the ΣFICs is ≤ 0.5); ΣFIC A + FIC B (E. coli; drug combined with compound 21): 0.3223
